Laboratory results taken from ChEMBL document CHEMBL1146897, “A chloroquine-like molecule designed to reverse resistance in Plasmodium falciparum” (J Med Chem, 2006).

Key:
Plasmodium chabaudi = assay: Antimalarial activity in Plasmodium chabaudi infected CF1 mice (Mus musculus) at 64 mg/kg over 4 days
Plasmodium falciparum [1] = assay: Antimalarial activity against chloroquine-resistant Plasmodium falciparum Dd2; assay type: functional, organism-based
Plasmodium falciparum [2] = assay: Antimalarial activity against chloroquine-sensitive Plasmodium falciparum D6; assay type: functional, organism-based

## CN(CCCNc1ccnc2cc(Cl)ccc12)CCCN1c2ccccc2CCc2ccccc21
Plasmodium chabaudi
  Activity: >99%
Plasmodium falciparum [1]
  IC50: 5.3 nM
Plasmodium falciparum [2]
  IC50: 2.9 nM
